{"source": "paper PMC5732813", "about": "“Novel piplartine-containing ruthenium complexes: synthesis, cell growth inhibition, apoptosis induction and ROS production on HCT116 cells” (Oncotarget, 2017)", "type_in_all_cases": "cell-based", "key": {"[1]": {"system": "MRC-5 (human lung fibroblast)", "experiment": "Cytotoxic activity, alamar blue assay, MRC-5 non-cancer cells", "settings": "Homo sapiens, MRC5; MRC-5 non-cancer cells, 72h of incubation, alamar blue; with 95% confidence interval; read-out: IC50", "text": "HCT116 (human colon carcinoma), HepG2 (human hepatocellular carcinoma), HSC-3 (human oral squamous cell carcinoma), SCC-4 (human oral squamous cell carcinoma), SCC-9 (human oral squamous cell carcinoma), HL-60 (human promyelocytic leukemia), K-562 (human chronic myelogenous leukemia), B16-F10 (murine melanoma), MRC-5 (human lung fibroblast), WT SV40 MEF (wild-type immortalized mouse embryonic fibroblast) and BAD KO SV40 MEF (BAD gene knockout immortalized mouse embryonic fibroblast) cell lines were obtained from the American Type Culture Collection (ATCC, Manassas, VA, USA) and cultured in RPMI-1640 medium (Gibco-BRL, Gaithersburg, MD, USA) with 10% fetal bovine serum (Life, Carlsbad, CA, USA), 2 mM L-glutamine (Vetec Química Fina, Duque de Caxias, RJ, Brazil) and 50 μg/mL gentamycin (Life, Carlsbad, CA, USA). Adherent cells were collected by treatment with 0.25% trypsin EDTA solution (Gibco-BRL, Gaithersburg, MD, USA). All cell lines were cultured in flasks at 37°C in 5% CO2 and sub-cultured every 3-4 days to maintain exponential growth.\n(§1) Cell viability was quantified using the alamar blue assay, according to Ahmed et al.. Cells were inserted in 96-well plates for all experiments (7 x 10^4 cells/mL for adherent cells or 3 x 10^5 cells/mL for suspended cells in 100 μL of medium). […] Negative controls received the vehicle that was used for diluting the compounds tested."}, "[2]": {"system": "PBMC (human peripheral blood mononuclear cells)", "experiment": "Cytotoxic activity, alamar blue assay, PBMC non-cancer cells", "settings": "Homo sapiens; PBMC non-cancer cells, 72h of incubation, alamar blue; with 95% confidence interval; read-out: IC50", "description": "PBMCs were washed and resuspended at a concentration of 3 x 10^5 cells/mL in RPMI 1640 medium with 20% fetal bovine serum, 2 mM glutamine and 50 μg/mL gentamycin at 37°C with 5% CO2. […] The Research Ethics Committee of the Oswaldo Cruz Foundation (Salvador, Bahia, Brazil) approved the experimental protocol (# 031019/2013). All participants signed a written informed consent to participate in the study.\nas §1"}, "[3]": {"system": "HCT116 cells", "experiment": "Gene expression analysis by qPCR array (TaqMan Array Human Molecular Mechanisms of Cancer)", "settings": "HCT116, 12 h, DOX 1 μM, PL 10 μM, 1 2.5 μM, 2 5 μM, negative control RQ = 1.0", "description": "HCT116 cells were plated in bottles tissue culture (7x10^4 cells/mL). After 12h of incubation with the complexes, total RNA was isolated from the cells using the RNeasy Plus mini kit (Qiagen, Hilden, Germany) according to the manufacturer’s instructions. The RNA was evaluated by fluorimetry (QuBit™, Life Technologies, Camarillo, CA, EUA). RNA reverse transcription was performed using Superscript VILO™ (Invitrogen Corporation, Waltham, MA, USA). A 96-well plate TaqMan® Array Human Molecular Mechanisms of Cancer (ID 4418806, Applied Biosystems™, Foster City, CA, EUA) was used for the gene expression study by qPCR. The reactions were conducted in the ABI ViiA7 (Applied Biosystems™, Foster City, CA, EUA). The cycle conditions comprised 2 min at 50 °C, 20 s at 95 °C, then 40 cycles of 3 s at 95 °C and 30 s at 60 °C. […] The GAPDH, 18S and HPRT1 genes were used for normalization. All experiments were performed in DNase/RNase free conditions."}}, "note": "pIC50: −log10 of the molar value. Where “and” joins values, the source holds several entries; their conditions need not be identical. Equal values may be shown once."}
{"smiles": "COc1cccc2c1C(=O)c1c(O)c3c(c(O)c1C2=O)C[C@@](O)(C(=O)CO)C[C@@H]3O[C@H]1C[C@H](N)[C@H](O)[C@H](C)O1", "note": "[Doxorubicin]", "values": [{"measurement": "pIC50", "setting": "[1]", "value": 5.89}, {"measurement": "pIC50", "setting": "[2]", "value": 5.27}, {"measurement": "RQ ABL1", "setting": "[3]", "value": 0.912}, {"measurement": "RQ AKT1", "setting": "[3]", "value": 1.840}, {"measurement": "RQ AKT2", "setting": "[3]", "value": 3.877}, {"measurement": "RQ APC", "setting": "[3]", "value": 0.908}, {"measurement": "RQ BAX", "setting": "[3]", "value": 3.274}, {"measurement": "RQ BCAR1", "setting": "[3]", "value": 1.809}, {"measurement": "RQ BCL2L1", "setting": "[3]", "value": 2.391}, {"measurement": "RQ BCL2L11", "setting": "[3]", "value": 1.152}, {"measurement": "RQ BID", "setting": "[3]", "value": 1.757}, {"measurement": "RQ BRAF", "setting": "[3]", "value": 0.513}, {"measurement": "RQ CASP9", "setting": "[3]", "value": 0.530}, {"measurement": "RQ CCND3", "setting": "[3]", "value": 1.438}, {"measurement": "RQ CCNE1", "setting": "[3]", "value": 0.894}, {"measurement": "RQ CDC42", "setting": "[3]", "value": 1.271}, {"measurement": "RQ CDK2", "setting": "[3]", "value": 1.257}, {"measurement": "RQ CDK4", "setting": "[3]", "value": 0.983}, {"measurement": "RQ CDKN1A", "setting": "[3]", "value": 2.853}, {"measurement": "RQ CDKN1B", "setting": "[3]", "value": 0.766}, {"measurement": "RQ CRK", "setting": "[3]", "value": 0.867}, {"measurement": "RQ CTNNB1", "setting": "[3]", "value": 0.939}, {"measurement": "RQ DVL1", "setting": "[3]", "value": 1.252}, {"measurement": "RQ E2F1", "setting": "[3]", "value": 1.018}, {"measurement": "RQ ELK1", "setting": "[3]", "value": 1.263}, {"measurement": "RQ ERBB2", "setting": "[3]", "value": 2.605}, {"measurement": "RQ FAS", "setting": "[3]", "value": 2.372}, {"measurement": "RQ FGF2", "setting": "[3]", "value": 0.625}, {"measurement": "RQ GRB2", "setting": "[3]", "value": 0.761}, {"measurement": "RQ GSK3B", "setting": "[3]", "value": 1.342}, {"measurement": "RQ GUSB", "setting": "[3]", "value": 5.0}, {"measurement": "RQ HRAS", "setting": "[3]", "value": 0.691}, {"measurement": "RQ ITGB1", "setting": "[3]", "value": 0.489}, {"measurement": "RQ ITGB3", "setting": "[3]", "value": 5.579}, {"measurement": "RQ KRAS", "setting": "[3]", "value": 0.951}, {"measurement": "RQ MAPK1", "setting": "[3]", "value": 0.903}, {"measurement": "RQ MAPK8", "setting": "[3]", "value": 1.185}, {"measurement": "RQ MAPK14", "setting": "[3]", "value": 0.786}, {"measurement": "RQ MDM2", "setting": "[3]", "value": 1.479}, {"measurement": "RQ MYC", "setting": "[3]", "value": 0.876}, {"measurement": "RQ NFKB1", "setting": "[3]", "value": 0.784}, {"measurement": "RQ NFKB2", "setting": "[3]", "value": 1.250}, {"measurement": "RQ NRAS", "setting": "[3]", "value": 0.556}, {"measurement": "RQ PIK3CA", "setting": "[3]", "value": 0.409}, {"measurement": "RQ RB1", "setting": "[3]", "value": 0.532}, {"measurement": "RQ RELA", "setting": "[3]", "value": 0.862}, {"measurement": "RQ RHOA", "setting": "[3]", "value": 0.900}, {"measurement": "RQ SRC", "setting": "[3]", "value": 1.383}, {"measurement": "RQ TCF3", "setting": "[3]", "value": 1.135}, {"measurement": "RQ TGFB1", "setting": "[3]", "value": 0.495}, {"measurement": "RQ TGFBR1", "setting": "[3]", "value": 1.216}, {"measurement": "RQ VEGFA", "setting": "[3]", "value": 0.610}, {"measurement": "RQ BCL2", "setting": "[3]; listed as DOX", "value": "3.1 and 3.090"}, {"measurement": "RQ CCND1", "setting": "[3]; listed as DOX", "value": "1.1 and 1.124"}, {"measurement": "RQ CDH1", "setting": "[3]; listed as DOX", "value": "7.1 and 7.107"}, {"measurement": "RQ CDKN2A", "setting": "[3]; listed as DOX", "value": "1.8 and 1.793"}, {"measurement": "RQ CYCS", "setting": "[3]; listed as DOX", "value": "1.0 and 0.993"}, {"measurement": "RQ EGFR", "setting": "[3]; listed as DOX", "value": "0.8 and 0.831"}, {"measurement": "RQ FADD", "setting": "[3]; listed as DOX", "value": "1.1 and 1.049"}, {"measurement": "RQ FN1", "setting": "[3]; listed as DOX", "value": "3.6 and 3.575"}, {"measurement": "RQ FOS", "setting": "[3]; listed as DOX", "value": "11.8 and 11.834"}, {"measurement": "RQ FYN", "setting": "[3]; listed as DOX", "value": "1.3 and 1.248"}, {"measurement": "RQ FZD1", "setting": "[3]; listed as DOX", "value": "1.0 and 0.994"}, {"measurement": "RQ IGF1R", "setting": "[3]; listed as DOX", "value": "1.4 and 1.389"}, {"measurement": "RQ ITGA2B", "setting": "[3]; listed as DOX", "value": "4.5 and 4.514"}, {"measurement": "RQ ITGAV", "setting": "[3]; listed as DOX", "value": "1.3 and 1.265"}, {"measurement": "RQ JUN", "setting": "[3]; listed as DOX", "value": "4.1 and 4.073"}, {"measurement": "RQ MAP2K1", "setting": "[3]; listed as DOX", "value": "0.7 and 0.681"}, {"measurement": "RQ MAP3K5", "setting": "[3]; listed as DOX", "value": "1.0 and 1.006"}, {"measurement": "RQ MAPK3", "setting": "[3]; listed as DOX", "value": "2.8 and 2.758"}, {"measurement": "RQ NFKBIA", "setting": "[3]; listed as DOX", "value": "2.3 and 2.326"}, {"measurement": "RQ PIK3R1", "setting": "[3]; listed as DOX", "value": "2.0 and 1.999"}, {"measurement": "RQ PTEN", "setting": "[3]; listed as DOX", "value": "1.8 and 1.750"}, {"measurement": "RQ PTK2", "setting": "[3]; listed as DOX", "value": "1.2 and 1.182"}, {"measurement": "RQ PTK2B", "setting": "[3]; listed as DOX", "value": "3.4 and 3.368"}, {"measurement": "RQ RAC1", "setting": "[3]; listed as DOX", "value": "0.9 and 0.845"}, {"measurement": "RQ RAF1", "setting": "[3]; listed as DOX", "value": "2.0 and 2.027"}, {"measurement": "RQ SHC1", "setting": "[3]; listed as DOX", "value": "0.6 and 0.640"}, {"measurement": "RQ SMAD4", "setting": "[3]; listed as DOX", "value": "1.0 and 0.963"}, {"measurement": "RQ SOS1", "setting": "[3]; listed as DOX", "value": "0.7 and 0.741"}, {"measurement": "RQ SPP1", "setting": "[3]; listed as DOX", "value": "1.2 and 1.165"}, {"measurement": "RQ TGFBR2", "setting": "[3]; listed as DOX", "value": "0.9 and 0.914"}, {"measurement": "RQ TP53", "setting": "[3]; listed as DOX", "value": "3.3 and 3.250"}]}
